Laboratory results taken from publication doi:10.1101/2025.06.07.658458v1, “Discovery of excited state proton transfer in flavin-based fluorescent protein with large Stokes shift” (biorxiv, 2025).

Assays:
Format in all cases: binding
[1] = target: T1, CagFbFP (Q89E variant: LSSFbFP) (Chloroflexus aggregans, UniProt B8GAY9, C85A/Q89E); assay: melting curve by flavin fluorescence in real-time PCR cycler; details: Tm of the complex, not a shift
T1 construct: gene Cagg_3753; C85A background inferred from printed I52V-A85Q and known biology
T1 sequence (B8GAY9 47-153 C85A/Q89E): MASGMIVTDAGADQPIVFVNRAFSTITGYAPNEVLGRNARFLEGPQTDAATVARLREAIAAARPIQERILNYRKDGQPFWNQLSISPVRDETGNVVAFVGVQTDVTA

[2] = target: T1, CagFbFP (Q89E variant: LSSFbFP); assay: chromophore dissociation constant measurement, details in cited reference; crystal structure of complex
[3] = target: T1, CagFbFP (Q89E variant: LSSFbFP); assay: melting curve by flavin fluorescence in real-time PCR cycler; details: Tm of the complex, not a shift; remark: listed apart in the source

Structure (SMILES)	denaturation temperature [1] [°C]	Kd [2] [nM]	thermal stability [3] [°C]
Cc1cc2nc3c(=O)[nH]c(=O)nc-3n(C[C@H](O)[C@H](O)[C@H](O)COP(=O)(O)O)c2cc1C [FMN, flavin mononucleotide]	81	360 ± 50	
Cc1cc2nc3[nH]c(=O)[nH]c(=O)c3nc2cc1C [LC, lumichrome]		900 ± 300	58
